# Test: Photoreactivity assessment (photo DSC enthalpy of polymerization)
# Type: physicochemical
# Conditions: for experimental ΔH as % of the calculated ΔH: 3% photoacid
# Excerpt: In this example, the photoreactivity of various combinations of SIL-MIX alone or SIL-MIX with 3,9-diethyl-3,9-bis(allyloxymethyl)-1,5,7,11-tetraoxaspiro[5.5]undecane (DEBAOM-1,5,7,11-TOSU) 1; 3,9-bis(3-trimethylsilylpropyl)-1,5,7,11-tetraoxaspiro[5.5]undecane (BTMSP-1,5,7,11-TOSU) 2; 3,9-bis(allyloxymethyl)-2,4,8,10-tetraoxaspiro[5.5]undecane (BAOM-2,4,8,10-TOSU) 3; 3,9-bis(2-trimethylsilylethyl)-[…] (BTMSE-2,4,8,10-TOSU) 4; 3,3-diethyl-11,12-epoxy-1,5,7,16-tetraoxadispiro[5.2.5.2]hexadecane (DECHE-1,5,7,11-TOSU) 5; and 3,9-diethyl-3,9-bis(3-trimethylsilylpropyloxymethyl)-1,5,7,11-tetraoxaspiro[5.5]-undecane (DEBTMSPOM-1,5,7,11-TOSU) 6 was investigated. The photoreactivity assessments (n=1) were made using an EXFO Novacure light curing unit interfaced with a Perkin-Elmer Diamond DSC. The experimental conditions were as follows: 25° C.; N2 atmosphere; 400-500 nm light; 3 mm quartz light guides; output: 500 mW/cm measured 15 mm from sample surface. The sample weights were 15-18 mg. Standard A1 pans were used. An empty pan was placed in the reference position. Irradiation time was for 10 minutes following a 1 minute equilibration. After the initial run, the sample was re-irradiated for an additional 10 minutes. This second curve was subtracted from the initial exotherm curve to zero out artifacts due to beginning and ending of irradiation, and to compensate for the heat capacity differences between the sample pan and empty reference pan. Integrations were from time t=1.1 (lamp shutter opened) min to 11.1 min (lamp shutter closed).
# In this example, reaction mixtures containing 0 or 20 mol % of TOSU monomers 1, 2, 3, 4, and 5 in SIL-MIX were formulated with 4.1 wt % photoinitiator system (3 wt % PI; 1 wt % CQ; 0.1 wt % ED). Formulated mixtures were heated for 5 minutes on an oil bath at about 60° C. and stirred magnetically to aid dissolution of the photoinitiator system and inventive monomer. Formulations were prepared and stored away from ambient light. Mixtures were tested for photoreactivity the same day as prepared.
# The effect of doubling the photoinitiator (PI) content from 3 wt % to 6 wt % was also determined for selected mixtures. As in Example 7(a) above, reaction mixtures (about 2 g) were formulated with 4.1 wt % photoinitiator system (3 wt % PI; 1 wt % CQ; 0.1 wt % ED) except where noted. Formulated mixtures were heated for 5 minutes on an oil bath @ 60° C. and stirred magnetically to dissolve the photoinitiator system and 6 (DEBTMSPOM-1,5,7,11-TOSU) when included. Formulations were prepared and stored away from ambient light and tested the same day as prepared.
smiles,measurement,setting,value
"CCC1(COCCC[Si](C)(C)C)COC2(OC1)OCC(CC)(COCCC[Si](C)(C)C)CO2 (stereo not shown) [Monomer 6, 3,9-diethyl-3,9-bis(3-trimethylsilylpropyloxymethyl)-1,5,7,11-tetraoxaspiro[5.5]undecane]",ΔHexp,"3 wt % PI, 10 mol % in SIL-MIX",-124 J/g
same,ΔHexp,"3 wt % PI, 25 mol % in SIL-MIX",-86 J/g
same,ΔHcalc,"3 wt % PI, calculated for inert diluent instead of TOSU at 10 mol %",-174 J/g
same,ΔHcalc,"3 wt % PI, calculated for inert diluent instead of TOSU at 25 mol %",-145 J/g
same,ΔHexp,"6 wt % PI, 10 mol % in SIL-MIX",-127 J/g
same,ΔHexp,"6 wt % PI, 25 mol % in SIL-MIX",-87 J/g
same,ΔHcalc,"6 wt % PI, calculated for inert diluent instead of TOSU at 10 mol %",-166 J/g
same,ΔHcalc,"6 wt % PI, calculated for inert diluent instead of TOSU at 25 mol %",-139 J/g
same,experimental ΔH as % of the calculated ΔH,10% TOSU mix in SIL-MIX,71%
same,experimental ΔH as % of the calculated ΔH,25% TOSU mix in SIL-MIX,59%
